{"source": "patent US8748088B2", "about": "“Methods of monitoring treatment effectiveness in HIV-infected patients receiveing intensified HAART regimens by measuring episomal 2-LTR circles” (University of Massachusetts, priority 2009, dated 2014)", "key": {"[1]": {"test_system": "memory CD4+ and activated CD8+ T cells", "assay": "Flow cytometry analysis of lymphocyte subsets and immune activation in fresh blood", "format": "in vivo, HIV-1 infected patients", "method": "Analysis of lymphocyte subsets and immune activation was performed as follows. A total of 52 patients, 34 in the intensification group and 18 patients in the control group, had fresh blood samples available for flow cytometry analysis through the study period. Different combinations of antibodies were used to characterize different lymphocyte subsets: combination 1 was designed to evaluate naïve/memory subsets and contained CD45RA-FITC, CD31-PE, CD38-PerCP, CD3-APC-Cy7, CD4-APC and CD8-PE-Cy7; combination 2 was designed to evaluate the activation of CD8 T cells and contained HLA-DR-FITC, PD-1-PE, CD38-PerCP, CD45RO-APC, CD3-APC-Cy7 and CD8-PE-Cy7. Controls with combinations of CD3-APC-Cy7, CD4-APC and CD8-PE-Cy7 antibodies were performed for all samples. All antibodies were obtained from Becton Dickinson. Briefly, 20 ul of fresh whole blood was incubated with antibodies for 15 min at room temperature with the different antibody combinations in V-bottom 96-well plates. Red cells were lysed using the BD FACs lysing solution (Becton Dickinson), washed once with PBS and resuspended in PBS containing 1% formaldehyde. Acquisition of flow cytometry data was performed on an LSRII flow cytometer (Becton Dickinson) coupled with a HTS loader. At least 30,000 lymphocytes were collected for each sample. Analyses were performed with FlowJo software (Tree Star Inc.).\n(§1) Statistical analysis for the above-described experiments was performed as follows. […] In each group longitudinal changes of total and integrated HIV-1 and immune activation parameters were assessed through the signed rank test (paired test) comparing weeks 0 and 12, or weeks 0 and 24 respectively. Differences in proportions between groups were analyzed through the Pearson's chi square, considering the continuity correction or the Fisher's exact test, as appropriate. Within the intensified arm, differences in 2-LTR circles at weeks 2 and 4 compared to baseline were analyzed using Peto-Prentice-Wilcoxon test. […]"}, "[2]": {"test_system": "HIV-1 2-LTR circles", "assay": "Real-time PCR quantification of episomal HIV-1 DNA (2-LTR circles) in PBMCs of HAART-suppressed patients intensified with raltegravir", "format": "in vivo", "text": "(§2) A total of 69 patients with undetectable plasma viremia (viral load <50 HIV-1 RNA copies/ml) for at least one year were included in this study. All patients were on a suppressive HAART regimen that included 2 nucleoside reverse transcriptase inhibitors, and either a protease inhibitor or a non-nucleoside reverse transcriptase inhibitor. A total of 45 patients were randomized to intensify their HAART with the integrase inhibitor raltegravir for 12 weeks, and 24 patients were included as a control arm. One patient in the control group was lost to follow-up before study initiation. […]\nThe samples included in this study were drawn from HIV-1 infected patients who were longitudinally monitored for up to 12 weeks. […]\nIn the formation of 2-LTR circles, U3 and U5 sequences within the 5′ and 3′ LTRs ligate to form a unique U3-U5 circle junction that is not represented in other forms of viral cDNA (FIG. 1A). Therefore, 2-LTR circles were specifically measured by real-time PCR with primers flanking the 2-LTR circle junction. […]\nReal-time PCR-based quantification of HIV-1 2-LTR circles was performed as follows. […] A single-step, real-time PCR was used to quantify 2-LTR circles in a 50 ul PCR reaction mix containing 25 ul of TaqMan® Universal PCR Master Mix (Applied Biosystems), 20 ul of extrachromosomal HIV-1 DNA and primers and probe that span the 2-LTR circle junction. […]"}, "[3]": {"test_system": "integrated HIV-1 DNA", "assay": "Two-step Alu-LTR real-time PCR quantification of integrated HIV-1 DNA in PBMCs of intensified patients", "format": "in vivo", "settings": "for levels of integrated HIV-1 DNA: throughout the 12 weeks of intensification, p=0.768 signed rank test", "text": "A total of 69 patients with undetectable plasma viremia (viral load <50 HIV-1 RNA copies/ml) for at least one year were included in this study. All patients were on a suppressive HAART regimen that included 2 nucleoside reverse transcriptase inhibitors, and either a protease inhibitor or a non-nucleoside reverse transcriptase inhibitor. A total of 45 patients were randomized to intensify their HAART with the integrase inhibitor raltegravir for 12 weeks, and 24 patients were included as a control arm. One patient in the control group was lost to follow-up before study initiation. A second patient also in this group, who had two consecutive viral load measurements at weeks 12 and 24 (90 and 63 HIV-1 copies/mL respectively), was excluded for further analysis.\nHIV-1 DNA purification was isolated as previously described (Hunt et al., J Infect Dis 187, 1534-1543 (2003)) with some modifications. […]\nReal-time PCR-based quantification of integrated HIV-1 DNA was performed as follows. […] A two-step real-time PCR was used to quantitate integrated HIV-1 DNA using Alu-LTR primers as has previously been described (Brussel and Sonigo, J Virol 77, 10119-10124 (2003)). […] The fluorescence taqman probe was 5′[…] […]\nAmplification and calculation of copy number was determined as for 2-LTR DNA. […] Integrated proviral DNA was measured using LTR-Alu primers. […]\nas §1"}, "[4]": {"test_system": "total HIV-1 DNA", "assay": "Real-time PCR quantification of total HIV-1 DNA in PBMCs of intensified patients", "format": "in vivo", "settings": "throughout the 12 weeks of intensification, p=0.342 signed rank test", "text": "as §2\nTotal viral DNA forms (comprising unintegrated and integrated viral cDNA) were assayed using internal LTR primers (FIG. 2). […] Real-time PCR-based quantification of total HIV-1 DNA was performed as follows. […] A single-step real-time PCR was used to quantify total HIV-1 DNA in a 50 ul PCR reaction mix containing 25 ul of TaqMan® Universal PCR Master Mix (Applied Biosystems), 20 ul of chromosomal HIV-1 DNA and primers and probe that anneal in the 5′ and 3′ end of the R and U5 region of the LTR respectively, as has previously been described (Brussel and Sonigo, J Virol 77, 10119-10124 (2003)) using a forward primer; 5′ GG CTA ACT AGG GAA CCC ACT G 3′ (SEQ ID NO:4) and a reverse primer; 5′ GCTAGAGATTTTCCACACTGACTAA 3′ (SEQ ID NO:5). […] Amplification and calculation of copy number was determined as for 2-LTR DNA. […]"}, "[5]": {"settings": "raltegravir-intensified group as a whole, throughout the study period (weeks 0-24)"}}}
{"smiles": "Cc1nnc(C(=O)NC(C)(C)c2nc(C(=O)NCc3ccc(F)cc3)c(O)c(=O)n2C)o1", "note": "[raltegravir]", "values": [{"measurement": "immune activation", "setting": "[1]; patients in which raltegravir impacted active replication (2-LTR+ subgroup, n=13)", "result": "normalization of immune activation"}, {"measurement": "activated CD8+ T cells", "setting": "[1]; [5]", "result": "no major changes"}, {"measurement": "memory CD4+ T cells (CD4+CD45RA-)", "setting": "[1]; [5]", "result": "no major changes"}, {"measurement": "patients with detectable 2-LTR circles (active replication revealed)", "setting": "[2]; HAART intensified with raltegravir for 12 weeks, n=45, any time point during the study, 13/45, control 0/22, p=0.003", "result": 29, "unit": "%"}, {"measurement": "change in 2-LTR circles compared to baseline", "setting": "[2]; intensification group, weeks 2 and 4 vs baseline (p=0.036 and p=0.023), subsequent decrease afterwards", "result": "significant and transient increase in 2-LTR circles"}, {"measurement": "patients from whom integrated HIV-1 DNA was amplified", "setting": "[3]; intensified patients 39/45, any time point after initiation of the study", "result": 87, "unit": "%"}, {"measurement": "levels of integrated HIV-1 DNA", "setting": "[3]", "result": "remained stable"}, {"measurement": "levels of integrated HIV-1 DNA", "setting": "[3]; listed as Raltegravir", "result": "did not cause significant fluctuations"}, {"measurement": "levels of total HIV-1 DNA", "setting": "[4]", "result": "remained stable"}, {"measurement": "levels of total HIV-1 DNA", "setting": "[4]; listed as Raltegravir", "result": "did not cause significant fluctuations"}]}
